Data taken from patent publication US7939639B2, “Functional role of adrenomedullin (AM) and the gene related product (PAMP) in human pathology and physiology” (The United States of America as represented by the …, priority 1995, dated 2011).
“Also recorded” adds a separate entry of the source. Like-named read-outs stand apart in the source and are kept apart here. Ends that are not written are not given here.

Columns and labels:
[1] = tested on: E. coli, P. aeruginosa, C. albicans, S. aureus; assay: Antimicrobial dilution assays against bacterial and fungal pathogens; format: cell-based; conditions: microdilutional assay
Method: In order to assess the antimicrobial activity of AM and its gene related peptides, both microdilution and macrodilution assays were performed against Escherichia coli (E. coli), Staphylococcus aureus (S. aureus), Pseudomonas aeruginosa (P. aeruginosa) and Candida albicans (C. albicans). A germination assay was also performed in order to further assess anti-candidal activity (Ghannoum, M. A. and Radwan, S. S., Candida Adherence to Epithelial Cells. CRC Press; Boca Raton, Fla. 1990 pp. 72-104).
(§1) Inhibition of growth of E. coli was assessed in a microdilutional timed kill assay. (See FIG. 22) Bacteria and Candida albicans were grown overnight on trypticase soy agar (TSA) and Sobouraud dextrose agar (SDA) plates, respectively, were suspended into RPMI-1640 medium (Bio-Whittaker) and adjusted to a final concentration of 8×10^3 cfu/ml in […] in plastic microdilution trays. AM-related peptides, magainins, and albumin were added in equimolar concentrations ranging from 8 μM to 300 μM. Plates were incubated at 37° C. with gentle agitation over 24 hours. At 6 hr and 24 hr time points, 10 to […] aliquots from each well were quantitatively cultured by serial 100-fold dilutions onto TSA and SDA plates.
The antimicrobial activity of AM and PAMP was determined in a macrodilution assay after 6 hours of incubation of E. coli. […] Data were compiled from six experiments. Macrodilution assays were performed in 12×75 mm borosilicate glass tubes. Organisms were grown and harvested, as described in Roilides, E., et al., J Infect Dis. 163:579 (1991), and adjusted to a final inoculum concentration of 8×10^3 cfu/ml in 400 μl. AM-related peptides, magainins, and albumin were added in equimolar concentrations ranging from 8 μM to 300 μM. Tubes were incubated at 37° C. with gentle agitation over 24 hours. At 6 and 24 hour time points, 100 μl aliquots from each tube were quantitatively cultured by serial 100-fold dilutions onto TSA and SDA plates.

AM receptors = assay: 125I-AM receptor binding, MCF-7; set-up: species or system human; conditions: MCF-7 as representative cancer line
Method: j. Receptor Binding: Receptor binding analysis were performed as previously described (Moody, T. W., et al., Proc. Natl. Acad. Sci. U.S.A. 90:4345-4349 (1993)). Briefly, cells (5×10^4) were placed in 24-well plates coated with fibronectin (20 μg). When a monolayer is formed, the cells were washed 4 times in TIS buffer followed by incubation with receptor binding medium (TIS plus 1% BSA and 1 mg/ml bacitracin). […] After washing the cells 4 times in receptor binding buffer at 4° C., they were dissolved in 0.2 N NaOH and counted on a gamma counter.

P. aeruginosa = assay: Micro-/macrodilution timed kill assay, P. aeruginosa; format: cell-based, Pseudomonas aeruginosa; conditions: 24 hours exposure compared with 6 hours incubation
Method: as §1, with “AM-related peptides, magainins, and albumin were added in equimolar concentrations ranging from 8 μM to 300 μM.” left out
(§2) Data were compiled from six experiments. Macrodilution assays were performed in 12×75 mm borosilicate glass tubes. Organisms were grown and harvested, as described in Roilides, E., et al., J Infect Dis. 163:579 (1991), and adjusted to a final inoculum concentration of 8×10^3 cfu/ml in 400 μl. […] Tubes were incubated at 37° C. with gentle agitation over 24 hours. At 6 and 24 hour time points, 100 μl aliquots from each tube were quantitatively cultured by serial 100-fold dilutions onto TSA and SDA plates.

S. aureus = assay: Micro-/macrodilutional assays, S. aureus; format: cell-based, Staphylococcus aureus; conditions: microdilutional or macrodilutional assays
Method: as §1, with “AM-related peptides, magainins, and albumin were added in equimolar concentrations ranging from 8 μM to 300 μM.” left out
as §2

Isoelectric point = format: physicochemical
AM receptor = assay: cAMP assay (RIA), MCF-7; format: cell-based, human; conditions: MCF-7
Method: k. cAMP Assays: Cyclic AMP was assayed by RIA using a kit obtained from New England Nuclear (Boston, Mass.). […] The supernatants were tested for cAMP using the RIA kit following the manufacturer's instructions.

rat mast cells = conditions: compared with magainin-2 / AM
C. albicans = assay: Micro-/macrodilutional assay, C. albicans; format: cell-based, Candida albicans
Method: as §1, with “AM-related peptides, magainins, and albumin were added in equimolar concentrations ranging from 8 μM to 300 μM.” left out
as §2

E. coli [2] = assay: Macrodilution assay, E. coli; format: cell-based, Escherichia coli; conditions: for antimicrobial activity, macrodilution, 6 hours: 6 hours incubation
Method: as §2

E. coli [3] = assay: Microdilutional timed kill assay, E. coli; format: cell-based, Escherichia coli; conditions: for growth inhibitory activity against E. coli, comparative: microdilution, 6 hours, FIG. 22
Method: as §1

NCI-H1264 = assay: 125I-AM binding to NCI-H1264 cells; set-up: species or system human; conditions: 0.2 nM per 5×10^5 cells; NCI-H1264 positive control
Excerpt: (§3) A similar mechanism has been described for amylin (R. A. Pittner et al., J. Cell. Biochem. 55S, 19 (1994)).

RINm cells = assay: 125I-AM binding to RINm cells; conditions: 0.2 nM per 5×10^5 cells
Excerpt: as §3

## Y-G-G-H-Q-I-Y-Q-F-T-D-K-D-NH2 (YGGHQIYQFTDKD-NH2) [PO71, ID; NO]
[1]
  activity against these pathogens: little or no activity

## ARLDVASEFRKKWNKWALSR-NH2 [PAMP-20, ARLDVASEFRKKWNKWALSR-NH2]
AM receptors
  competition for 125I-AM binding: not competitively blocked
P. aeruginosa
  antimicrobial activity against P. aeruginosa, 24 hours versus 6 hours: greater antimicrobial activity
S. aureus
  growth suppressive activity against S. aureus: ineffective; also recorded: no apparent growth suppressive activity
Isoelectric point
  isoelectric point: 10.1
Isoelectric point; listed as PAMP
  isoelectric point: 11.1
AM receptor
  effect on cAMP: no effect
Rat mast cells
  relative potency in inducing histamine release: twenty times more potent
C. albicans
  antimicrobial effect against C. albicans: 79.7%±2.4
C. albicans; after 6 hours of incubation
  activity against C. albicans: activity
E. coli [2]; E. coli
  antimicrobial activity, macrodilution, 6 hours: greater activity
E. coli [3]; after 6 hours of incubation
  activity against E. coli: activity
E. coli [3]
  growth inhibitory activity against E. coli, comparative: higher growth inhibitory activity than albumin

## Y-Y-W-N-K-W-A-L-S-R-NH2 (YYWNKWALSR-NH2) [PO70, ID; NO]
[1]
  activity against these pathogens: little or no activity

## Magainin [reference compound]
C. albicans
  potency against C. albicans, comparative: more potent than AM and PAMP
E. coli [2]; E. coli
  antimicrobial activity, macrodilution, 6 hours: moderate activity
E. coli [2]; E. coli, 24 hours incubation
  antimicrobial activity, macrodilution, 24 hours: significantly greater in antimicrobial activity than either AM or PAMP; also recorded: more potent than either AM
E. coli [2]; macrodilution
  optical clarity of bacterial suspension: optically clear suspension of bacteria
E. coli [3]
  growth inhibitory activity against E. coli, comparative: greater inhibitory activity

## ^125I-AM: iodinated AM ligand (Phoenix Pharmaceuticals)
NCI-H1264
  binding of 125I-AM: 2265 cpm
RINm cells
  binding of 125I-AM: 25 cpm

## TVQKLAHQIYQFTDKDKDNVAPRSKISPQGY-NH2 [PO72]
AM receptors
  competition for 125I-AM binding: not competitively blocked
AM receptor
  effect on cAMP: no effect
[1]
  activity against these pathogens: little or no activity
